ChEMBL document CHEMBL4602694, “Suppression of Drug-Resistant Non-Small-Cell Lung Cancer with Inhibitors Targeting Minichromosomal Maintenance Protein” (J Med Chem, 2020)

Key:
[1] = system: NCI-H1975; test: Antiproliferative activity against human NCI-H1975 cells assessed as reduction in cell viability incubated for 72 hrs by SRB assay; assay type: functional, cell-based; settings: NCI-H1975, 72 h
[2] = system: NCI-H1975; test: Potency index, ratio of IC50 of AS4583 to IC50 of compound for Antiproliferative activity against human NCI-H1975 cells assessed as reduction in cell viability incubated for 72 hrs by SRB assay; assay type: functional
[3] = system: Hs68; test: Cytotoxicity against human HS68 cells assessed as reduction in cell viability incubated for 72 hrs by SRB assay; assay type: cell-based; settings: Hs68, 72 h
[4] = system: NCI-H1975; test: Antitumor activity against human NCI-H1975 cells xenografted in athymic nude BALB/c mouse assessed as tumor size at 4 mg/kg, ip administered for 4 weeks (reference value: 546.2 +/- 95.2 cu.mm); assay type: functional
[5] = system: NCI-H1975; test: Antitumor activity against human NCI-H1975 cells xenografted in athymic nude BALB/c mouse assessed as tumor size at 1 mg/kg, ip administered for 4 weeks (reference value: 546.2 +/- 95.2 cu.mm); assay type: functional

Compound	IC50 [1] [nM]	further results
Cc1oc2c(c1C(=O)NCCCCc1ccccc1)C(=O)c1ccccc1C2=O	> 10000	
Cc1oc2c(c1C(=O)NCCCn1cccc1)C(=O)c1ccccc1C2=O	918	
Cc1oc2ccccc2c1C(=O)NCCCn1ccnc1	> 10000	
Cc1oc2c(c1C(=O)NCCCCn1ccnc1)C(=O)c1ccccc1C2=O	250	
O=C1c2ccccc2C(=O)c2c1oc(-c1ccccc1)c2C(=O)NCCCn1ccnc1	826	

More lines, in order of falling IC50 [1], values ahead:

IC50 [1] [nM]	Compound	further results
8730	Cc1[nH]c2c(c1C(=O)NCCCn1ccnc1)C(=O)c1ccccc1C2=O	Ratio IC50 [2]: 100
288	CCc1oc2c(c1C(=O)NCCCn1ccnc1)C(=O)c1ccccc1C2=O	
280	Cc1oc2c(c1C(=O)NCCn1ccnc1)C(=O)c1ccccc1C2=O	
260	CC(C)c1oc2c(c1C(=O)NCCCn1ccnc1)C(=O)c1ccccc1C2=O	
80	Cc1oc2c(c1C(=O)NCCCN1CCOCC1)C(=O)c1ccccc1C2=O	
24	Cc1oc2c(c1C(=O)NCCCN1CCCC1)C(=O)c1ccccc1C2=O	IC50 [3]: 77 nM
17	Cc1oc2c(c1C(=O)NCCCn1ccnc1)C(=O)c1ccc(F)cc1C2=O	Activity [4]: 109.5 mm3; Activity [5]: 128.2 mm3
